The supplement of paper PMC10307832

Experiments:
Assay in all cases: relative viability (nuclei count vs DMSO), 5 days (fraction); higher = more cells survive
[1] = system: UMC-11
Procedure, shortened: (§1)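 Five library-drug doses in √10 steps were combined with a fixed anchor-drug dose, or a single drug was given alone, by pin tool to lung cancer cell lines in 1536-well plates the day after seeding. Nuclei were stained and counted after 5 days. Relative viability is the nuclei count in treated wells over that in vehicle wells, taken as the median of duplicate plates.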

[2] = system: NCI-H1650
Procedure, shortened: as §1

[3] = system: NCI-H1648
Procedure, shortened: as §1

[4] = system: LK-2
Procedure, shortened: as §1

[5] = system: NCI-H2009
Procedure, shortened: as §1

[6] = system: CAL-12T
Procedure, shortened: as §1

[7] = system: A-427
Procedure, shortened: as §1

[8] = system: NCI-H1734
Procedure, shortened: as §1

For `O=c1cc(N2CCOCC2)oc2c(-c3cccc4c3sc3ccccc34)cccc12` + CC(=O)c1c(C)c2cnc(Nc3ccc(N4CCNCC4)cn3)nc2n(C2CCCC2)c1=O [Palbociclib] (partner 0.5 µM), the relative viability ([1]; first compound 0.01 µM) was 0.309, the relative viability ([1]; first compound 0.03162 µM) was 0.294 and the relative viability ([1]; first compound 0.1 µM) was 0.32. For the same molecule, the relative viability ([1]; first compound 0.3162 µM) was 0.347, the relative viability ([1]; first compound 1 µM) was 0.324 and the relative viability ([2]; first compound 0.01 µM) was 0.299. It also gave a relative viability ([2]; first compound 0.03162 µM) of 0.363, a relative viability ([2]; first compound 0.1 µM) of 0.346 and a relative viability ([2]; first compound 0.3162 µM) of 0.368. It also gave a relative viability ([2]; first compound 1 µM) of 0.317, a relative viability ([3]; first compound 0.03162 µM) of 0.261 and a relative viability ([3]; first compound 0.1 µM) of 0.273. For the same molecule, the relative viability ([3]; first compound 0.3162 µM) was 0.284, the relative viability ([3]; first compound 1 µM) was 0.292 and the relative viability ([4]; first compound 0.01 µM) was 0.83. It also gave a relative viability ([4]; first compound 0.03162 µM) of 0.768, a relative viability ([4]; first compound 0.1 µM) of 0.587 and a relative viability ([4]; first compound 0.3162 µM) of 0.638. The relative viability ([4]; first compound 1 µM) was 0.77, the relative viability ([5]; first compound 0.01 µM) was 0.234 and the relative viability ([5]; first compound 0.03162 µM) was 0.25. For the same molecule, the relative viability ([5]; first compound 0.1 µM) was 0.22, the relative viability ([5]; first compound 0.3162 µM) was 0.177 and the relative viability ([5]; first compound 1 µM) was 0.158. It also gave a relative viability ([6]; first compound 0.01 µM) of 0.444, a relative viability ([6]; first compound 0.03162 µM) of 0.401 and a relative viability ([6]; first compound 0.1 µM) of 0.587. For the same molecule, the relative viability ([6]; first compound 0.3162 µM) was 0.528, the relative viability ([6]; first compound 1 µM) was 0.436 and the relative viability ([7]; first compound 0.01 µM) was 0.533. The relative viability ([7]; first compound 0.03162 µM) was 0.52, the relative viability ([7]; first compound 0.1 µM) was 0.528 and the relative viability ([7]; first compound 0.3162 µM) was 0.508. The relative viability ([7]; first compound 1 µM) was 0.513, the relative viability ([8]; first compound 0.01 µM) was 0.324 and the relative viability ([8]; first compound 0.03162 µM) was 0.342. It also gave a relative viability ([8]; first compound 0.1 µM) of 0.434, a relative viability ([8]; first compound 0.3162 µM) of 0.352 and a relative viability ([8]; first compound 1 µM) of 0.374.

With `COc1nc(C)cnc1NS(=O)(=O)c1cccnc1-c1ccc(-c2nnco2)cc1` [Zibotentan] + CC(=O)c1c(C)c2cnc(Nc3ccc(N4CCNCC4)cn3)nc2n(C2CCCC2)c1=O [Palbociclib] (partner 0.5 µM) the relative viability ([1]; first compound 0.08 µM) was 0.35, the relative viability ([1]; first compound 0.253 µM) was 0.323 and the relative viability ([1]; first compound 0.8 µM) was 0.363. For the same molecule, the relative viability ([1]; first compound 2.53 µM) was 0.323, the relative viability ([2]; first compound 0.08 µM) was 0.335 and the relative viability ([2]; first compound 0.8 µM) was 0.357. It also gave a relative viability ([2]; first compound 2.53 µM) of 0.336, a relative viability ([3]; first compound 0.08 µM) of 0.274 and a relative viability ([3]; first compound 0.253 µM) of 0.276. For the same molecule, the relative viability ([3]; first compound 0.8 µM) was 0.312, the relative viability ([3]; first compound 2.53 µM) was 0.259 and the relative viability ([4]; first compound 0.08 µM) was 0.609. For the same molecule, the relative viability ([4]; first compound 0.253 µM) was 0.544, the relative viability ([4]; first compound 0.8 µM) was 0.62 and the relative viability ([4]; first compound 2.53 µM) was 0.609. It also gave a relative viability ([5]; first compound 0.08 µM) of 0.188, a relative viability ([5]; first compound 0.253 µM) of 0.169 and a relative viability ([5]; first compound 0.8 µM) of 0.205. The relative viability ([5]; first compound 2.53 µM) was 0.212, the relative viability ([6]; first compound 0.08 µM) was 0.625 and the relative viability ([6]; first compound 0.253 µM) was 0.365. It also gave a relative viability ([6]; first compound 0.8 µM) of 0.629, a relative viability ([6]; first compound 2.53 µM) of 0.508 and a relative viability ([7]; first compound 0.08 µM) of 0.514. It also gave a relative viability ([7]; first compound 0.253 µM) of 0.515, a relative viability ([7]; first compound 0.8 µM) of 0.519 and a relative viability ([7]; first compound 2.53 µM) of 0.559. It also gave a relative viability ([8]; first compound 0.08 µM) of 0.337, a relative viability ([8]; first compound 0.253 µM) of 0.32 and a relative viability ([8]; first compound 0.8 µM) of 0.374. It also gave a relative viability ([8]; first compound 2.53 µM) of 0.407.

With `O=c1cc(N2CCOCC2)oc2c(-c3cccc4c3sc3ccccc34)cccc12` + Nc1nc2[nH]cc(CCc3ccc(C(=O)N[C@@H](CCC(=O)O)C(=O)O)cc3)c2c(=O)[nH]1 [Pemetrexed] (partner 0.2 µM) the relative viability ([1]; first compound 0.01 µM) was 0.738, the relative viability ([1]; first compound 0.03162 µM) was 0.66 and the relative viability ([1]; first compound 0.1 µM) was 0.868. For the same molecule, the relative viability ([1]; first compound 0.3162 µM) was 0.805, the relative viability ([1]; first compound 1 µM) was 0.789 and the relative viability ([2]; first compound 0.01 µM) was 0.397. For the same molecule, the relative viability ([2]; first compound 0.03162 µM) was 0.374, the relative viability ([2]; first compound 0.1 µM) was 0.35 and the relative viability ([2]; first compound 0.3162 µM) was 0.341. The relative viability ([2]; first compound 1 µM) was 0.34, the relative viability ([3]; first compound 0.03162 µM) was 0.681 and the relative viability ([3]; first compound 0.1 µM) was 0.894. It also gave a relative viability ([3]; first compound 0.3162 µM) of 0.667, a relative viability ([3]; first compound 1 µM) of 0.583 and a relative viability ([4]; first compound 0.01 µM) of 0.278. It also gave a relative viability ([4]; first compound 0.03162 µM) of 0.238, a relative viability ([4]; first compound 0.1 µM) of 0.296 and a relative viability ([4]; first compound 0.3162 µM) of 0.238. The relative viability ([4]; first compound 1 µM) was 0.275, the relative viability ([5]; first compound 0.01 µM) was 0.929 and the relative viability ([5]; first compound 0.03162 µM) was 1.04. The relative viability ([5]; first compound 0.1 µM) was 1.01, the relative viability ([5]; first compound 0.3162 µM) was 1.01 and the relative viability ([5]; first compound 1 µM) was 0.998. The relative viability ([6]; first compound 0.01 µM) was 1.15, the relative viability ([6]; first compound 0.03162 µM) was 1.16 and the relative viability ([6]; first compound 0.1 µM) was 1.29. The relative viability ([6]; first compound 0.3162 µM) was 1.13, the relative viability ([6]; first compound 1 µM) was 1.09 and the relative viability ([7]; first compound 0.01 µM) was 0.944. For the same molecule, the relative viability ([7]; first compound 0.03162 µM) was 1.01, the relative viability ([7]; first compound 0.1 µM) was 0.954 and the relative viability ([7]; first compound 0.3162 µM) was 0.993. It also gave a relative viability ([7]; first compound 1 µM) of 0.945, a relative viability ([8]; first compound 0.01 µM) of 0.453 and a relative viability ([8]; first compound 0.03162 µM) of 0.425. For the same molecule, the relative viability ([8]; first compound 0.1 µM) was 0.406, the relative viability ([8]; first compound 0.3162 µM) was 0.412 and the relative viability ([8]; first compound 1 µM) was 0.396.
